How the values were obtained:
CCI mice = settings: cited from earlier work
[1] = test system: rat model of ischemia-reperfusion injury; settings: cited from earlier work
RIM rats = settings: melatonin supplementation, gastrocnemius muscle; cited from earlier work
PINP rats = settings: cited from earlier work
[2] = test system: paclitaxel-induced neuropathic pain; settings: via induction of the NRF-2/HO-1 signaling pathway in the spinal cord; cited from earlier work
[3] = test system: rat periodontal disease model; settings: MAO up-regulation triggered by LPS; cited from earlier work
FM fibroblasts = settings: AMPK activation; cited from earlier work
HMC3 microglial cells = assay: MTT cell viability assay; settings: 24, 48 and 72 h, metaxalone 10, 20, 40 μg/mL, staurosporine 100 nM positive control

## CC1(C)CC[C@]2(NC(=O)C(C)(F)F)CC[C@]3(C)[C@H](C(=O)C=C4[C@@]5(C)C=C(C#N)C(=O)C(C)(C)[C@@H]5CC[C@]43C)[C@@H]2C1 [RTA-408]
CCI mice; CCI mice, dose-dependent
  mechanical allodynia (von Frey test): significantly reversed
  thermal hyperalgesia (Hargreaves plantar test): significantly reversed
CCI mice; L4-6 spinal cord of CCI mice, NRF-2-dependent
  mitochondrial biogenesis (MB): significantly restored
CCI mice; L4-6 spinal cord of CCI mice
  activity of NRF-2: increased

## O=C(NCCN1CCOCC1)c1ccc(Cl)cc1 [moclobemide]
[1]
  inflammatory process: attenuate

## COc1ccc2[nH]cc(CCNC(C)=O)c2c1 [melatonin]
RIM rats
  studied parameters (PGC-1α, Mfn2, CoQ10), oxidative stress: significantly preserved all the studied parameters

## Cc1ccc(CN(CC(O)COc2cccc3[nH]ccc23)C(C)(C)C)cc1 (stereo not drawn) [SR-18292]
PINP rats; PINP rats
  analgesic effect of formoterol against PINP in presence of PGC-1α inhibitor: partially abolished

## Cc1c(-c2cnccn2)ssc1=S [oltipraz]
[2]
  paclitaxel-induced neuropathic pain: significantly attenuate

## NNCCc1ccccc1 [phenelzine]
[3]
  oxidative stress: significantly reduce

## CN(C)C(=N)N=C(N)N [metformin]
FM fibroblasts
  response to moderate oxidative stress and mitochondrial metabolism: improved

## CN[C@@H]1C[C@H]2O[C@@](C)([C@@H]1OC)n1c3ccccc3c3c4c(c5c6ccccc6n2c5c31)C(=O)NC4 [staurosporine]
HMC3 microglial cells
  cell viability (MTT): significant reduction in cell viability

## COc1ccc(CC(C)NCC(O)c2ccc(O)c(NC=O)c2)cc1 (stereo not drawn) [formoterol]
PINP rats; spinal cord of PINP rats
  ADRB2 expression, mtDNA copy number and PGC-1α, NRF-1, TFAM protein expression: restored

Source: US20240197687A1, “METHODS OF TREATING NEUROINFLAMMATION AND INHIBITING MONOAMINE OXIDASE-A AND RESTORING/UPREGULATING/INCREASING IL-13 AND AND PGC-1 BY ADMINISTERING ORAL DOSAGE FORM CONTAINING MICRONIZED AND NONMICRONIZED PARTICULATE METAXALONE, ALGINIC ACID AND PROPYLENE GLYCOL ALGINATE” (Primus Pharmaceuticals, Inc., priority 2022, published 2024)
